Non-standard residues stand in square brackets, D forms with d. Residues, ends and D or L forms follow the SMILES beside them. pGlu = O=C1CC[C@@H](C(=O)O)N1

For the test, the system named is collagenase. In words: Collagenase inhibition, acetyl 14C collagen hydrolysis (procedure of Sellers et al.). Format: biochemical. The following applies: 2 mM inhibitor, 35° C., 5 to 18 hours, Tris-CaCl2 pH 7.4, versus control devoid of inhibitor. The procedure:
The collagen is acetyl ^14 C collagen. The samples are centrifuged and an aliquot removed for assay on a scintillation counter. Because native collagen forms insoluble fibrils under the test conditions, the supernatant liquid contains radioactivity as a measure of hydrolysis. The collagenase activity in the presence of 2 mM inhibitor is compared to activity in a control devoid of inhibitor and the results reported as percent inhibition of collagenase activity. Each of the compounds of this invention have been established as active collagenase inhibitors by the test procedure.
The following examples illustrate the preparation of typical representative compounds of the invention. After each preparative example, the percent inhibition of collagenase activity at the 2 mM level of inhibition in accordance with the previously described standart testing procedure is provided.
In the case of “Ac-PQGIAG-NH2 [Example 3, CH3 CO-Pro-Gln-Gly-Ile-Ala-Gly-NH2]”, the Percent inhibition collagenase was 35%.

`CC[C@H](C)[C@H](NC(=O)[C@@H](N)CS)C(N)=O` [Example 1, H-L-Cys-L-Ile-NH2] (H-Cys-Ile-NH2) gave a Percent inhibition collagenase of 35%.

On to `CC[C@H](C)[C@H](NC(=O)[C@H](CS)NC(=O)[C@@H]1CCC(=O)N1)C(N)=O` [Example 2, L-pGlu-L-Cys-L-Ile-NH2] ([pGlu]-Cys-Ile-NH2), for which the Percent inhibition collagenase is recorded as 75%.
